Results as given in publication PMC3770947, “A cyclic GMP-dependent signalling pathway regulates bacterial phytopathogenesis” (The EMBO Journal, 2013).

Columns and labels:
[1] = molecular target: cNMP domain of XC_0249 (Xanthomonas campestris pv. campestris (Xcc) strain 8004); assay: crystal structure; XC_0249 cNMP domain with cyclic GMP bound, resolution 2.2 Å
[2] = molecular target: T1, CYC domain of XC_0250 (CYCHis6) (Xanthomonas campestris, UniProt Q8PDU5); assay: guanylyl cyclase assay, reverse-phase HPLC and mass spectrometry; assay type: biochemical; conditions: 0.5 mM GTP, 10 mM MnCl2, pH 8.0, 25°C
T1 construct: gene XCC0240; single band of 21 kDa

[3] = molecular target: T2, full-length XC_0249 (Xanthomonas campestris, UniProt Q8PDU6); assay: diguanylate cyclase assay, HPLC and mass spectrometry; assay type: biochemical; conditions: 150 μM GTP, 10 mM MgCl2, pH 7.6, 60 min
T2 construct: gene XCC0239; full-length purified protein; cNMP domain plus GGDEF domain
T2 sequence (Q8PDU6 entry or part of it): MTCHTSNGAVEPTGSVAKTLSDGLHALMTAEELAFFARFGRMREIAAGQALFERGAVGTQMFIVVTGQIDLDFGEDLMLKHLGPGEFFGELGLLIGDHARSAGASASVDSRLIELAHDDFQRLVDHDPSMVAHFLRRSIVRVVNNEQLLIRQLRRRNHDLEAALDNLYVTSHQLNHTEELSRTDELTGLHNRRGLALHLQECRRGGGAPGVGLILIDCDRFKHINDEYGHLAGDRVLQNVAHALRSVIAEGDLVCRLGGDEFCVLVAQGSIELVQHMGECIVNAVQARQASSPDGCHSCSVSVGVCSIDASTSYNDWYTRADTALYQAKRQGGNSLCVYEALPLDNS

T1 sequence (Q8PDU5 entry or part of it): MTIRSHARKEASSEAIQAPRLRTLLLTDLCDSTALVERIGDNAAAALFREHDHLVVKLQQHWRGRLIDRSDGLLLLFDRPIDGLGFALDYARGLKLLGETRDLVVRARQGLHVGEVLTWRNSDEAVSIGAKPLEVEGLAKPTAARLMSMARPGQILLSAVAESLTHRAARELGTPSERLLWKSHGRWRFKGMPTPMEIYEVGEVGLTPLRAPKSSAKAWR

Molecule | guanylyl cyclase assay, reverse-phase HPLC and mass spectrometry [2] | further results
cNMP domain of XC_0249 (domain or fragment) |  | stoichiometry N [1]: 2
Nc1nc2c(ncn2[C@@H]2O[C@@H]3COP(=O)(O)O[C@H]3[C@H]2O)c(=O)[nH]1 [cyclic GMP] | This protein had guanylate cyclase activity, converting GTP to cyclic GMP | 
Nc1nc2c(ncn2[C@@H]2O[C@@H]3COP(=O)(O)O[C@H]4[C@@H](O)[C@H](n5cnc6c(=O)[nH]c(N)nc65)O[C@@H]4COP(=O)(O)O[C@H]3[C@H]2O)c(=O)[nH]1 [cyclic di-GMP] |  | diguanylate cyclase assay, HPLC and mass spectrometry [3]: The identity of cyclic di-GMP as a product was confirmed by mass spectrometry
Nc1nc2c(ncn2[C@@H]2O[C@H](COP(=O)(O)OP(=O)(O)OP(=O)(O)O)[C@@H](O)[C@H]2O)c(=O)[nH]1 [GTP] | This protein had guanylate cyclase activity, converting GTP to cyclic GMP | 
